Source: patent US20250121013A1, “USE OF BACILLUS AMYLOLIQUEFACIENS FOR PREVENTING AND TREATING PARKINSON'S DISEASE” (Artugen Therapeutics Ltd., priority 2021, published 2025)
Converted amounts (≈) assume the structure as drawn.

Assays:
ART24 [1] = assay: Antibiotic susceptibility of ART24, MIC, VetMIC panels (Table 2); format: cell-based, Bacillus amyloliquefaciens; conditions: for MIC: Bacillus amyloliquefaciens, read-out: ART24 MIC
Protocol: The minimum inhibitory concentration (MIC) of the listed antimicrobials is expressed as μg/mL. […] The wells of the prefabricated 96-well plates were filled with 100 μL of the final suspension. The plates were sealed with an […], Sigma Aldrich) sealing film (to facilitate growth of the aerobic Bacillus. The plates were then incubated for 24 hr at 37° C. The results are recorded after 24 hours as the lowest concentration of the antibiotic to inhibit visible growth. The prefabricated panels […], Uppsala, Sweden) comprising the antibiotics ampicillin, vancomycin, gentamicin, kanamycin, streptomycin, erythromycin, clindamycin, tetracycline, chloramphenicol, neomycin, penicillin, quinupristin-dalfopristin, linezolid, trimethoprim, ciprofloxacin and rifampicin were used.

ART24 [2] = assay: Antibiotic susceptibility of ART24 lots and cell banks, MIC following EFSA testing recommendations (Table 3); format: cell-based, Bacillus amyloliquefaciens; conditions: for MIC: Bacillus amyloliquefaciens
Protocol: The minimum inhibitory concentration (MIC) of the listed antimicrobials is expressed as μg/mL. Additional studies following EFSA testing recommendations were performed on lyophilized ART24 lots CO-33-10A2 and CO-33-12A2 and Research and Master Cell Banks CO-33-ART24 BHI and CO-33-ART24 SYD, and those results are shown in Table 3.

[3] = 24 hr at 37° C., average results from N = 6
[4] = ART24 source: cell bank CO-33 ART 24 BHI
[5] = ART24 source: cell bank CO-33 ART 024 SYD
[6] = ART24 source: lyophilized lot CO-33-10A2
[7] = ART24 source: lyophilized lot CO-33-12A2
[8] = ART24 source: cell bank CO-33 ART 24 BHI, read-out: MIC, CO-33 ART 24 BHI
[9] = ART24 source: cell bank CO-33 ART 024 SYD, read-out: MIC, CO-33 ART 024 SYD
[10] = ART24 source: lyophilized lot CO-33-10A2, read-out: MIC, CO-33-10A2
[11] = ART24 source: lyophilized lot CO-33-12A2, read-out: MIC, CO-33-12A2

Row | Compound | MIC (ART24 [1]; [3]) | MIC interpretation, CO-33 ART 24 BHI (ART24 [2]; [4]) | MIC interpretation, CO-33 ART 024 SYD (ART24 [2]; [5]) | MIC interpretation, CO-33-10A2 (ART24 [2]; [6]) | MIC interpretation, CO-33-12A2 (ART24 [2]; [7]) | MIC (ART24 [2]; [8]) | MIC (ART24 [2]; [9]) | MIC (ART24 [2]; [10]) | MIC (ART24 [2]; [11]) | MIC (ART24 [1]; 24 h) | MIC (ART24 [2]; read-out: MIC, CO-33-10A2) | MIC (ART24 [2]; read-out: MIC, CO-33-12A2) | MIC (ART24 [2]; read-out: MIC, CO-33 ART 24 BHI) | MIC (ART24 [2]; read-out: MIC, CO-33 ART 024 SYD) | ART24 MIC (ART24 [1]; [3]) | MIC, CO-33 ART 24 BHI (ART24 [2]; [4]) | MIC, CO-33 ART 024 SYD (ART24 [2]; [5]) | MIC, CO-33-10A2 (ART24 [2]; [6]) | MIC, CO-33-12A2 (ART24 [2]; [7])
1 | CO[C@H]1/C=C/O[C@@]2(C)Oc3c(C)c(O)c4c(O)c(c(/C=N/N5CCN(C)CC5)c(O)c4c3C2=O)NC(=O)/C(C)=C\C=C\[C@H](C)[C@H](O)[C@@H](C)[C@@H](O)[C@@H](C)[C@H](OC(C)=O)[C@@H]1C [Rifampicin] | 0.5 µg/mL (≈ 0.608 µM) | S | S | S | S | 0.25 µg/mL (≈ 0.304 µM) | 0.25 µg/mL (≈ 0.304 µM) | 0.25 µg/mL (≈ 0.304 µM) | 0.25 µg/mL (≈ 0.304 µM) | – | – | – | – | – | – | – | – | – | –
2 | [H]/N=C(/N)N[C@H]1[C@H](O)[C@@H](O)[C@H](O[C@@H]2O[C@@H](C)[C@](O)(C=O)[C@H]2O[C@@H]2O[C@@H](CO)[C@H](O)[C@@H](O)[C@@H]2NC)[C@@H](N/C(N)=N\[H])[C@@H]1O [Streptomycin] | 4 µg/mL (≈ 6.88 µM) | S | S | S | S | 1 µg/mL (≈ 1.72 µM) | 2 µg/mL (≈ 3.44 µM) | 1 µg/mL (≈ 1.72 µM) | 1 µg/mL (≈ 1.72 µM) | – | – | – | – | – | – | – | – | – | –
3 | CN(C)[C@@H]1C(O)=C(C(N)=O)C(=O)[C@@]2(O)C(O)=C3C(=O)c4c(O)cccc4[C@@](C)(O)[C@H]3C[C@@H]12 [Tetracycline] | 4 µg/mL (≈ 9 µM) | S | S | S | S | 2 µg/mL (≈ 4.5 µM) | 2 µg/mL (≈ 4.5 µM) | 2 µg/mL (≈ 4.5 µM) | 2 µg/mL (≈ 4.5 µM) | – | – | – | – | – | – | – | – | – | –
4 | COc1cc(Cc2cnc(N)nc2N)cc(OC)c1OC [Trimethoprim] | ≤ 0.12 µg/mL | – | – | – | – | ≤ 0.25 µg/mL | ≤ 0.25 µg/mL | ≤ 0.25 µg/mL | ≤ 0.25 µg/mL | – | – | – | – | – | – | – | – | – | –
5 | CN[C@H](CC(C)C)C(=O)N[C@H]1C(=O)N[C@@H](CC(N)=O)C(=O)N[C@H]2C(=O)N[C@H]3C(=O)N[C@H](C(=O)N[C@H](C(=O)O)c4cc(O)cc(O)c4-c4cc3ccc4O)[C@H](O)c3ccc(c(Cl)c3)Oc3cc2cc(c3O[C@@H]2O[C@H](CO)[C@@H](O)[C@H](O)[C@H]2O[C@H]2C[C@](C)(N)[C@H](O)[C@H](C)O2)Oc2ccc(cc2Cl)[C@H]1O [Vancomycin] | – | S | S | S | S | – | – | – | – | 0.5 to 1 µg/mL (≈ 0.345 to 0.69 µM) | ≤ 0.25 µg/mL | ≤ 0.25 µg/mL | 0.5 µg/mL (≈ 0.345 µM) | ≤ 0.25 µg/mL | – | – | – | – | –
6 | Gentamicin | – | S | S | S | S | – | – | – | – | – | – | – | – | – | ≤0.5 µg/mL | ≤ 0.06 µg/mL | ≤ 0.06 µg/mL | ≤ 0.06 µg/mL | ≤ 0.06 µg/mL
7 | Neomycin | – | – | – | – | – | – | – | – | – | – | – | – | – | – | ≤0.5 µg/mL | ≤0.12 µg/mL | ≤0.12 µg/mL | ≤0.12 µg/mL | ≤0.12 µg/mL
8 | Penicillin | – | S | S | S | S | – | – | – | – | – | – | – | – | – | 0.12 to 0.5 µg/mL | ≤ 0.03 µg/mL | 0.06 µg/mL | ≤ 0.03 µg/mL | ≤ 0.03 µg/mL
9 | Quinupristin-dalfopristin | – | – | – | – | – | – | – | – | – | – | – | – | – | – | 4 µg/mL | 2 µg/mL | 2 µg/mL | 1 µg/mL | 2 µg/mL
